From ChEMBL document CHEMBL5528010, “The discovery of aryl-2-nitroethyl triamino pyrimidines as anti-Trypanosoma brucei agents” (Eur J Med Chem, 2024) come the findings set out here.

The source made the active and inactive calls. The calls are words filed in the database; no cut-off is given here.

Data set [1] in a line: Cmax in BALB/c mouse at 20 mg/kg, po measured upto 24 hrs by LC-MS/MS analysis. Conditions: in vivo. Format: ADME, organism-based.
In data set [2] the target is T1, Cytochrome P450 1A2 (Homo sapiens, UniProt P05177).
T1 sequence (P05177 whole entry): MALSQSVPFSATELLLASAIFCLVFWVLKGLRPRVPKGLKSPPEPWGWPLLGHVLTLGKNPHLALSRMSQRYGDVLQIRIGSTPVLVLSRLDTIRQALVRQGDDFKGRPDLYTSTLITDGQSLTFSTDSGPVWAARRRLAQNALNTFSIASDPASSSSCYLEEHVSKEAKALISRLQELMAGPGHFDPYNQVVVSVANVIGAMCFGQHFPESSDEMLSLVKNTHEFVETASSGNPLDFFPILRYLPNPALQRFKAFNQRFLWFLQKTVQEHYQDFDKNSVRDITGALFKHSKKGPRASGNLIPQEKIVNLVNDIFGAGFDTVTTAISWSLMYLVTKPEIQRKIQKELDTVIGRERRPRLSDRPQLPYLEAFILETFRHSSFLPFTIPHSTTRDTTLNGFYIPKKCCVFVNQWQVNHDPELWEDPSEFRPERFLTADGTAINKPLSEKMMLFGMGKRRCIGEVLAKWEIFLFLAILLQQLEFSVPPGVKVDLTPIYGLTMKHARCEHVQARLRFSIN
In words: Inhibition of CYP1A2 (unknown origin) expressed in baculovirus infected insect cells using luciferin as substrate preincubated for 30 mins followed by NADPH addition and measured after 30 mins by luminescence based analysis. Format: ADME, Insect cell.

Data set [3] concerns the target Cytochrome P450 2D6 (Homo sapiens, UniProt P10635). In words: Inhibition of CYP2D6 (unknown origin) expressed in baculovirus infected insect cells using luciferin as substrate preincubated for 30 mins followed by NADPH addition and measured after 30 mins by luminescence based analysis. It counts as ADME, Insect cell.
The target of data set [4] is Cytochrome P450 2C19 (Homo sapiens, UniProt P33261). Description: Inhibition of CYP2C19 (unknown origin) expressed in baculovirus infected insect cells using luciferin as substrate preincubated for 30 mins followed by NADPH addition and measured after 30 mins by luminescence based analysis. It counts as ADME, Insect cell.
Sequence of Cytochrome P450 2C19 (P33261 whole entry): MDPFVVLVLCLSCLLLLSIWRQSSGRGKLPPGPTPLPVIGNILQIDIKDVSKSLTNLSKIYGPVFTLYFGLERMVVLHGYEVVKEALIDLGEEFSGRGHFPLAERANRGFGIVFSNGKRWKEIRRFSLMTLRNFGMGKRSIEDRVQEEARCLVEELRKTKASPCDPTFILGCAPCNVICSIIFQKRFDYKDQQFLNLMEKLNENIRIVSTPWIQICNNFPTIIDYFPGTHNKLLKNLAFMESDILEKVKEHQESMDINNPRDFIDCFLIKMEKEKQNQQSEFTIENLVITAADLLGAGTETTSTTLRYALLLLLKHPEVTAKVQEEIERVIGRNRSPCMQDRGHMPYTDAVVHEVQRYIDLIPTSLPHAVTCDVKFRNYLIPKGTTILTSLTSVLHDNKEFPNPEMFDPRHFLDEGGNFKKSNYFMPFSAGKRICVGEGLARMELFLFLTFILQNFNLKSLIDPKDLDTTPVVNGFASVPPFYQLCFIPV
In data set [5] the test system is Trypanosoma brucei. Description: Antiparasitic activity against blood stream form Trypanosoma brucei assessed as parasitic growth inhibition incubated for 72 hrs by resazurin dye based fluorescence analysis. Format: functional, organism-based.
Data set [6] has as its target Voltage-gated inwardly rectifying potassium channel KCNH2 (Homo sapiens, UniProt Q12809). In words: Inhibition of human ERG incubated for 2 hrs by fluorescence polarization assay. Format: toxicity.
Data set [7] has as its system CYP2C9. Description: Selectivity index, ratio of IC50 for CYP2C9 (unknown origin) to EC50 for blood stream form Trypanosoma brucei. Conditions: read-out: Ratio IC50/EC50. It counts as toxicity.
In data set [8] the target is Cytochrome P450 2C9 (Homo sapiens, UniProt P11712). Description: Inhibition of CYP2C9 (unknown origin) expressed in baculovirus infected insect cells using luciferin as substrate preincubated for 30 mins followed by NADPH addition and measured after 30 mins by luminescence based analysis. Format: ADME, Insect cell.
Sequence of Cytochrome P450 2C9 (P11712 whole entry): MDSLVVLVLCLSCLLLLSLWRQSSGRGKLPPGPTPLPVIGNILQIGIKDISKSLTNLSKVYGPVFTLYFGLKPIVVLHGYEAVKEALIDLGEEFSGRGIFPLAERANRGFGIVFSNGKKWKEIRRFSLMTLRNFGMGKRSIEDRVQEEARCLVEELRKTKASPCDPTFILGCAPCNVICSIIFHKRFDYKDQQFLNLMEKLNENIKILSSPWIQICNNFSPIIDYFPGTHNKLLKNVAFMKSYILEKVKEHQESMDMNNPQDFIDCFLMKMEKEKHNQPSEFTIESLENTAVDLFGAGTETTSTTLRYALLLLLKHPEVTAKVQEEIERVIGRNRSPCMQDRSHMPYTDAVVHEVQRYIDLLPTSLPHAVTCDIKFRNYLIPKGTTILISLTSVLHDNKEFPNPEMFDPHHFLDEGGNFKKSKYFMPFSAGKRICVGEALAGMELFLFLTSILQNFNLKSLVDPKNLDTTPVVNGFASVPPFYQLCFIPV
For data set [9], the system named is CYP1A2. Description: Selectivity index, ratio of IC50 for CYP1A2 (unknown origin) to EC50 for blood stream form Trypanosoma brucei. It counts as toxicity. Conditions: read-out: Ratio IC50/EC50.
Data set [10] deals with CYP2D6. Description: Selectivity index, ratio of IC50 for CYP2D6 (unknown origin) to EC50 for blood stream form Trypanosoma brucei. It counts as toxicity. Conditions: read-out: Ratio IC50/EC50.
In data set [11] the target is T2, Pteridine reductase 1 (Leishmania major, UniProt Q01782).
T2 sequence (Q01782 whole entry): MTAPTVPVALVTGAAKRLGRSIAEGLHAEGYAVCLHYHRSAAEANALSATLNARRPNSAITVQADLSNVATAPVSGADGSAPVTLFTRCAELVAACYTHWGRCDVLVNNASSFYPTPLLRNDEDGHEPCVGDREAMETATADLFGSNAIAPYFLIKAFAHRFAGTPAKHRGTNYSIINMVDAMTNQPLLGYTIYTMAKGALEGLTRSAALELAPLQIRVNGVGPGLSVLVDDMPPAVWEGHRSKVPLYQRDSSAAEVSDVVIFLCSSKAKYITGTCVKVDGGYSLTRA
Description: Inhibition of N-terminal his 6 tagged recombinant Leishmania major PTR1 expressed in Escherichia coli BL21 (DE3) cells preincubated for 10 mins followed by NADPH addition and measured after 10 to 50 mins by multilabel plate reader method.

Data set [12] has as its system Leishmania infantum. In words: Antiparasitic activity against Leishmania infantum intracellular amastigotes MHOM/BR/1972/BH46 infected in human THP-1 cells assessed as inhibition of parasitic growth at 50 uM pre-infected for 24 hrs followed by compound addition and measured after 48 hrs relative to control. Format: functional. Conditions: MHOM/BR/1972/BH46, THP-1.

Data set [13] is described as follows: AUC last in BALB/c mouse at 20 mg/kg, po measured upto 24 hrs by LC-MS/MS analysis. It counts as ADME, organism-based. The note with it: in vivo.
Data set [14] has as its system hERG. In words: Selectivity index, ratio of IC50 for human ERG to EC50 for blood stream form Trypanosoma brucei. It counts as toxicity. Conditions: read-out: Ratio IC50/EC50.
Data set [15] can be described thus: Inhibition of N-terminal his 6 tagged recombinant Trypanosoma brucei PTR1 expressed in Escherichia coli BL21 (DE3) cells preincubated for 10 mins followed by NADPH addition and measured after 10 to 50 mins by multilabel plate reader method. Format: cell-based.
Data set [16] concerns CYP3A4. In words: Selectivity index, ratio of IC50 for CYP3A4 (unknown origin) to EC50 for blood stream form Trypanosoma brucei. The note with it: read-out: Ratio IC50/EC50. Format: toxicity.
Data set [17] deals with CYP2C19. Description: Selectivity index, ratio of IC50 for CYP2C19 (unknown origin) to EC50 for blood stream form Trypanosoma brucei. Format: toxicity. The note with it: read-out: Ratio IC50/EC50.
Data set [18] relates to Trypanosoma brucei. In words: Anti-parasitic activity against Trypanosoma brucei infected in BALB/c mouse model assessed as reduction of parasitemia at 20 mg/kg administered daily. Format: functional, organism-based.
Data set [19] concerns THP-1. In words: Cytotoxicity against human THP-1 cells assessed as reduction in cell viability measured after 72 hrs by MTT assay. It counts as functional.
Data set [20] in a line: Tmax in BALB/c mouse at 20 mg/kg, po measured upto 24 hrs by LC-MS/MS analysis. The note with it: in vivo. It counts as ADME, organism-based.
Data set [21] in a line: Selectivity index, ratio of CC50 for human THP-1 cells to EC50 for bloodstream form Trypanosoma brucei. Format: toxicity. Conditions: read-out: Ratio CC50/EC50.
Data set [22] addresses Cytochrome P450 3A4 (Homo sapiens, UniProt P08684). Description: Inhibition of CYP3A4 (unknown origin) expressed in baculovirus infected insect cells using luciferin as substrate preincubated for 30 mins followed by NADPH addition and measured after 30 mins by luminescence based analysis. Format: ADME, Insect cell.
Data set [23] can be described thus: Growth inhibition of human A549 cells measured after 48 hrs by celltiter-glo assay. It counts as toxicity, cell-based.
Data set [24] can be described thus: Half life in BALB/c mouse at 20 mg/kg, po measured upto 24 hrs by LC-MS/MS analysis. Format: ADME, organism-based. Conditions: in vivo.
Data set [25] can be described thus: Selectivity index, ratio of GI50 for human A549 cells to EC50 for blood stream form Trypanosoma brucei. Format: toxicity. The note with it: read-out: Ratio GI50/EC50.
Data set [26] can be described thus: Mitochondrial toxicity in human A549 cells. Format: cell-based.
The nature of data set [27]: Selectivity index, ratio of IC50 for human A549 cells to EC50 for blood stream form Trypanosoma brucei. The note with it: read-out: Ratio IC50/EC50. It counts as toxicity.
The test system of data set [28] is Trypanosoma brucei. Description: Anti-parasitic activity against Trypanosoma brucei infected in BALB/c mouse model assessed as reduction of parasitemia at 5 mg/kg/day, ip relative to control. Format: functional. Also noted: scale not given: the % may be the effect or the level left.

Sequence of Voltage-gated inwardly rectifying potassium channel KCNH2 (Q12809 whole entry): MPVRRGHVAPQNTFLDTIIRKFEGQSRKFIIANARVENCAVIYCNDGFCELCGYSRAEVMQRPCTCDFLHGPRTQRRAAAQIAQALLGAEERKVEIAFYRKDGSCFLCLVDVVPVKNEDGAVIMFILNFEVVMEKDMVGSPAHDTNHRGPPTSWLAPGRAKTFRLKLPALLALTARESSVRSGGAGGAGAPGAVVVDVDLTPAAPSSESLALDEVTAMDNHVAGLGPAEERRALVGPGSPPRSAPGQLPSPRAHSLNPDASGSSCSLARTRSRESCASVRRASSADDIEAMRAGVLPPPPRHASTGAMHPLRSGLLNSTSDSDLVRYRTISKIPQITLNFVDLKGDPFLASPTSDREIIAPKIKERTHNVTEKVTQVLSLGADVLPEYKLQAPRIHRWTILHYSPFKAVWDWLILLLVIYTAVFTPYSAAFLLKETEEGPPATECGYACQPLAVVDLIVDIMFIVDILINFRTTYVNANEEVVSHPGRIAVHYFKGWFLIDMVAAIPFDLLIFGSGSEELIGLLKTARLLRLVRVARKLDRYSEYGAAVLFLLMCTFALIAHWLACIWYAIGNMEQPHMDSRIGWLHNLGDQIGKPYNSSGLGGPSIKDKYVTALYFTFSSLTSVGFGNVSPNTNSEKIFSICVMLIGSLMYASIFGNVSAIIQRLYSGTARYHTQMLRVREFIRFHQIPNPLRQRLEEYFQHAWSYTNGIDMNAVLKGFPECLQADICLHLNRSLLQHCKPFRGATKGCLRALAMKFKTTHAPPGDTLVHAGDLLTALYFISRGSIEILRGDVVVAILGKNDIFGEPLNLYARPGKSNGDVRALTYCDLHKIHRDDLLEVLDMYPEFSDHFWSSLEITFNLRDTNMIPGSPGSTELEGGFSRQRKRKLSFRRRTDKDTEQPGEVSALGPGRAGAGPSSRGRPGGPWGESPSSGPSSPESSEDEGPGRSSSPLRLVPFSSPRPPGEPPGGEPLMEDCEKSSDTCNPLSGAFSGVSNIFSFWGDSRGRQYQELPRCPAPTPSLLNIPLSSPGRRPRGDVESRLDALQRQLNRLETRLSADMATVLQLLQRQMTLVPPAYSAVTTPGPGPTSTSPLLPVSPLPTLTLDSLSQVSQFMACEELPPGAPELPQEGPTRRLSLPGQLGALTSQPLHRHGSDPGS
Sequence of Cytochrome P450 2D6 (P10635 whole entry): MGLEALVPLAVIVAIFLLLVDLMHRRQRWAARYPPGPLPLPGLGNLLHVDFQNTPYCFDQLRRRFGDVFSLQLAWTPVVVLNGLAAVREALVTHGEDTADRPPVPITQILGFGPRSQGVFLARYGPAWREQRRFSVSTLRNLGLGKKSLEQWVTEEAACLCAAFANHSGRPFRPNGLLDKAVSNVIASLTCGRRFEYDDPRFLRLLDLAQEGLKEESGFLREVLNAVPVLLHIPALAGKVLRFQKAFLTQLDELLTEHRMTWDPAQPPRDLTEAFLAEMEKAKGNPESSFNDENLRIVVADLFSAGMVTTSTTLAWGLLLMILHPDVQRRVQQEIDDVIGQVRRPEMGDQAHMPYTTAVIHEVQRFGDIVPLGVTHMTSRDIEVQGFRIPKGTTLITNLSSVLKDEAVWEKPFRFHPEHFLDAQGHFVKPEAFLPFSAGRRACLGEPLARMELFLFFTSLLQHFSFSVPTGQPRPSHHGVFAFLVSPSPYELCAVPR
Sequence of Cytochrome P450 3A4 (P08684 whole entry): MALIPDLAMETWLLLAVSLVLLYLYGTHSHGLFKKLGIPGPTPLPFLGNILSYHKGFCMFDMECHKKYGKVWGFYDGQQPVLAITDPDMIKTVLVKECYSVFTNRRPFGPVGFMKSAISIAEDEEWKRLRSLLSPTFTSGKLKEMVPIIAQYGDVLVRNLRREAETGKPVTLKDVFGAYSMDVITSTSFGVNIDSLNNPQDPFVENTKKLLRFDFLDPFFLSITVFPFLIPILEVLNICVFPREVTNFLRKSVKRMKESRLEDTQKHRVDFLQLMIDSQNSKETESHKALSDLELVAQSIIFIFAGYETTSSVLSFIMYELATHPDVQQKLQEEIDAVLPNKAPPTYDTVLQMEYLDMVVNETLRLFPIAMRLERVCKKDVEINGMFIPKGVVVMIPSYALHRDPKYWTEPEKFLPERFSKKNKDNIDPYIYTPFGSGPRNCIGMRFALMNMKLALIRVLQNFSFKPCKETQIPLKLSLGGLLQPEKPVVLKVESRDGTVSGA

`Nc1nc(N)c(C(C[N+](=O)[O-])c2csc3ccccc23)c(N)n1` (stereo unspecified) gave a Cmax in data set [1] of 828 ng/mL. Also, the IC50 is 3 µM in data set [2]; 10.2 µM in data set [3]; 15.3 µM in data set [4]; 16 µM in data set [6]; 24.4 µM in data set [8]; 47.4 µM in data set [11]. The IC50 was 0.3 µM in data set [15], > 100 µM in [22] and 10.4 µM in data set [26]. Moreover, in data set [5], the concentration giving a half-maximal response (EC50) is 0.09 µM. In addition, the selectivity ratio is 271 in data set [7]; 33 in data set [9]; 113 in data set [10]; 178 in data set [14]; > 1100 in data set [16]; 170 in data set [17]. In addition, the selectivity ratio in data set [21] was determined as 139; in data set [25] it was 117; in data set [27], 115. Besides, the inhibition at 50 µM in data set [12] was found to be 49%. In addition, the exposure AUC(0-t) at 24 h in data set [13] was determined as 5290 ng·h/mL. For the same compound, in [18], the outcome was inactive. For the same compound, the CC50 in data set [19] came out at 12.5 µM. Also, in [20], the time to peak (Tmax) turned out to be 1 h. In [23], this compound registered a GI50 at 48 h of 10.6 µM. The same compound showed a half-life in [24] of 2.1 h.
For `N=C(N)c1ccc(OCCCCCOc2ccc(C(=N)N)cc2)cc1` [PENTAMIDINE], in data set [5], the EC50 came out at 0.004 µM. For the same compound, in data set [11], the half-inhibitory concentration (IC50) worked out at 87.1 µM. The Activity in [28] is given as 100%.
`Nc1nc(N)c(C(C[N+](=O)[O-])c2ccccc2OCc2ccc(Cl)c(Cl)c2)c(N)n1` (stereo unspecified) yielded a maximum concentration (Cmax) in [1] of 373 ng/mL. Besides, the IC50 in data set [2] is 1.2 µM; in data set [3] it was 5.9 µM; in data set [4], 8 µM; in data set [6] it was > 100 µM; in [8], 3.2 µM; in data set [11], 46 µM. For the same compound, the values for the IC50 in data set [15], in [22] and in data set [26] were 0.27 µM, 5.9 µM and 3.9 µM, respectively. Also, in [5], the EC50 is 0.3 µM. Besides, the selectivity ratio is 11 in data set [7]; 4 in data set [9]; 20 in data set [10]; > 300 in [14]; 20 in data set [16]; 26 in data set [17]. For the same compound, the selectivity ratio in [21] came to 83; in [25], 33; in [27], 13. In data set [12], the inhibition at 50 µM was 11.7%. In [13], this compound yielded an AUC(0-t) at 24 h of 1180 ng·h/mL. For the same compound, the CC50 in data set [19] was 25 µM. In addition, the Tmax in data set [20] turned out to be 0.5 h. For the same compound, the GI50 at 48 h in [23] stood at 10 µM. In data set [24], this compound showed a half-life of 3 h.
